Earlier results as cited in patent publication US6562605B1, “Extraction of water soluble biomaterials from fluids using a carbon dioxide/surfactant mixture” (Genencor International, Inc., priority 1995, dated 2003).
Like-named read-outs stand apart in the source and are kept apart here.

[1] = to 388 bar, 50° C. printed at first prior art line

Compound | Solubility in carbon dioxide (at 377 bar) | Solubility in carbon dioxide [1] | further results
CCCCCCS(=O)(=O)[O-].[Na+] [Alkyl sulfonate (C6, sodium salt, Fluka)] | – | insoluble to 388 bar (50° C.) | –
CCCCCCCCS(=O)(=O)[O-].[Na+] [Alkyl sulfonate (Niacet, NAS 08)] | – | – | Solubility in carbon dioxide (to 585 bar): insoluble to 585 bar
CCCCCCCCCCCCCC[N+](C)(C)C.[Br-] [Tetradecyl trimethyl ammonium bromide] | – | insoluble to 388 bar | –

More lines, main results first:

Solubility in carbon dioxide (at 377 bar) | Compound | Solubility in carbon dioxide [1] | further results
slightly soluble at 377 bar | Sorbitan monostearate [Sorbitan monostearate (Fluka, Span 60)] | – | –
slightly soluble at 377 bar | Sorbitan trioleate [Sorbitan trioleate (Fluka, Span 80)] | – | –
